Counter-ions that a name gives are not always drawn.
biological target: recombinant Human Phosphodiesterase B2 (PDE4B2) (Homo sapiens, UniProt Q07343); test: Human Phosphodiesterase B2 Radiometric Assay; type: biochemical; conditions: 0.1 μg/mL recombinant PDE4B2; preincubated at 30 C for 30 min; [3H]cyclic AMP 8 nM, stopped after 20 min; yttrium silicate SPA beads; read-out: PDE4B2 pIC50 (converted)
Experimental: Human Phosphodiesterase B2 Radiometric Assay
The assay uses recombinant Human Phosphodiesterase B2 (PDE4B2) produced in house (PrAZL0163), stored at −20° C. This assay is based on the observation that 5′AMP, the product of the reaction catalysed by PDE4, binds preferentially to yttrium silicate SPA beads (Amersham Biosciences, UK) compared to the substrate, cAMP. Compounds at the appropriate concentration were preincubated at 30 C for 30 min with an assay buffer containing 50 mM HEPES (pH 7.5), 8.3 mM MgCl2, 1.7 mM EGTA, 0.01% (w/v) Brij®35 and 0.1 μg/mL recombinant PDE4B2. The reaction was started by the addition of [3H]cyclic AMP to give a final concentration of 8 nM, and was stopped 20 min after the addition of the substrate by the addition of yttrium silicate SPA beads containing 18 mM Zn SO4. Bound […] was measured using a Topcount NXT (Packard Bioscience, UK). pIC50 values (presented in Table 2) were determined using Xlfit3 curve fitting, using model 205.

Chain of recombinant Human Phosphodiesterase B2 (PDE4B2) (Q07343 1-564 isoform Q07343-2): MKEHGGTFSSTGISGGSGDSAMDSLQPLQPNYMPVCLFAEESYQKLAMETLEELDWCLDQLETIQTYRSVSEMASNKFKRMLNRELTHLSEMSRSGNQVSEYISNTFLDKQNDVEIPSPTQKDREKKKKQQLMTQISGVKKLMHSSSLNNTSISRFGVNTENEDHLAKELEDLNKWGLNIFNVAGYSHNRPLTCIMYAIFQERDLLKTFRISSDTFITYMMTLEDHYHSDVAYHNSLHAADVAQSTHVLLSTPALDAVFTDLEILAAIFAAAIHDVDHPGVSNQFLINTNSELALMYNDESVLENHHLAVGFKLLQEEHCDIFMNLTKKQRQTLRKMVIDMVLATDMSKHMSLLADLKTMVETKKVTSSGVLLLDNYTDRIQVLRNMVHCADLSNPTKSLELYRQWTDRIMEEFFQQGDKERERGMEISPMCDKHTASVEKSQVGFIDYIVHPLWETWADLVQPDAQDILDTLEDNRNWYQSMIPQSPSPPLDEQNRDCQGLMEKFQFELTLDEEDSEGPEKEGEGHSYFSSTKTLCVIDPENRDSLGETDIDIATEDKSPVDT

| Compound | IC50 |
| --- | --- |
| CN(C)CCN(C)Cc1ccc(-c2cccc(Oc3ncc(F)cc3C(=O)N[C@H]3CC[C@@H](NC(=O)c4cn5c(n4)CCCC5)CC3)c2)cc1 [Example 105, N-((1s,4s)-4-(2-(4′-(((2-(dimethylamino)ethyl)(methyl)amino)methyl)biphenyl-3-yloxy) 5-fluoronicotinamido)cyclohexyl)-5,6,7,8-tetrahydroimidazo[1,2-a]pyridine-2-carboxamide] | 0.631 nM |
| CC(C)NC(=O)CN1CCN(Cc2ccc(-c3cccc(Oc4ncc(F)cc4C(=O)N[C@H]4CC[C@@H](NC(=O)c5cc6n(n5)CCCC6)CC4)c3)c(CN3CCOCC3)c2)CC1 [Example 200, N-((1s,4s)-4-(5-fluoro-2-(4′-((4-(2-(isopropylamino)-2-oxoethyl)piperazin-1-yl)methyl)-2′-(morpholinomethyl)biphenyl-3-yloxy)nicotinamido)cyclohexyl)-4,5,6,7-tetrahydropyrazolo[1,5-a]pyridine-2-carboxamide] | 0.0251 nM |
| Cc1cc(C)n2ncc(C(=O)N[C@H]3CC[C@@H](NC(=O)c4cc(F)cnc4Oc4cccc(-c5ccc(CN6C[C@@H](C)N[C@@H](C)C6)cc5CN5CCOC[C@@H]5C)c4)CC3)c2n1 [Example 196, N-((1s,4s)-4-(2-(4′-(((3S,5R)-3,5-dimethylpiperazin-1-yl)methyl)-2′-(((S)-3-methylmorpholino)methyl)biphenyl-3-yloxy)-5-fluoronicotinamido)cyclohexyl)-5,7-dimethylpyrazolo[1,5-a]pyrimidine-3-carboxamide] | 0.0251 nM |
| Cc1csc(C(=O)N[C@H]2CC[C@@H](NC(=O)c3cc(F)cnc3Oc3cccc(-c4ccc(CN5C[C@@H](C)N[C@@H](C)C5)cc4CN4CCSCC4)c3)CC2)n1 [Example 192, N-((1s,4s)-4-(2-(4′-(((3S,5R)-3,5-dimethylpiperazin-1-yl)methyl)-2′-(thiomorpholinomethyl)biphenyl-3-yloxy)-5-fluoronicotinamido)cyclohexyl)-4-methylthiazole-2-carboxamide] | 0.02 nM |
| Cc1csc(C(=O)N[C@H]2CC[C@@H](NC(=O)c3cc(F)cnc3Oc3cccc(-c4ccc(CN5CCN(CC(=O)NC(C)C)CC5)cc4CN4CCOCC4)c3)CC2)n1 [Example 198, N-((1s,4s)-4-(5-fluoro-2-(4′-((4-(2-(isopropylamino)-2-oxoethyl)piperazin-1-yl)methyl)-2′-(morpholinomethyl)biphenyl-3-yloxy)nicotinamido)cyclohexyl)-4-methylthiazole-2-carboxamide] | 0.0251 nM |
| C[C@@H]1CN(Cc2ccc(-c3cccc(Oc4ncc(F)cc4C(=O)N[C@H]4CC[C@@H](NC(=O)c5cc6n(n5)CCCC6)CC4)c3)c(CN3CCOCC3)c2)C[C@H](C)N1 [Example 124, N-((1s,4s)-4-(2-(4′-(((3S,5R)-3,5-dimethylpiperazin-1-yl)methyl)-2′-(morpholinomethyl)biphenyl-3-yloxy)-5-fluoronicotinamido)cyclohexyl)-4,5,6,7-tetrahydropyrazolo[1,5-a]pyridine-2-carboxamide] | 0.0501 nM |
| CC(C)c1nc(C(=O)N[C@H]2CC[C@@H](NC(=O)c3cc(F)cnc3Oc3cccc(-c4ccc(O)c(CN5C[C@@H](C)N[C@@H](C)C5)c4)c3)CC2)cs1 [Example 90, N-((1s,4s)-4-(2-(3′-(((3S,5R)-3,5-dimethylpiperazin-1-yl)methyl)-4′-hydroxybiphenyl-3-yloxy)-5-fluoronicotinamido)cyclohexyl)-2-isopropylthiazole-4-carboxamide] | 0.2 nM |
| Cc1cc(C(=O)N[C@H]2CC[C@@H](NC(=O)c3cc(F)cnc3Oc3cccc(-c4ccc(CCCN5CCNC[C@H]5C)cc4)c3)CC2)nn1C [Example 142, N-((1s,4s)-4-(1,5-dimethyl-1H-pyrazole-3-carboxamido)cyclohexyl)-5-fluoro-2-(4′-(3-((R)-2-methylpiperazin-1-yl)propyl)biphenyl-3-yloxy)nicotinamide] | 0.0251 nM |
| O=C(N[C@H]1CC[C@@H](NC(=O)c2cc(F)cnc2Oc2cccc(-c3ccc(O)cc3CN3CCOCC3)c2)CC1)c1cc(O)c2ccccc2n1 [Example 41, N-((1s,4s)-4-(5-fluoro-2-(4′-hydroxy-2′-(morpholinomethyl)biphenyl-3-yloxy)nicotinamido)cyclohexyl)-4-hydroxyquinoline-2-carboxamide] | 0.1 nM |
| Cc1cc(C(=O)N[C@H]2CC[C@@H](NC(=O)c3cc(F)cnc3Oc3cccc(-c4cccc(CN5C[C@@H](C)N[C@@H](C)C5)c4)c3)CC2)nn1C [Example 72, N-((1s,4s)-4-(1,5-dimethyl-1H-pyrazole-3-carboxamido)cyclohexyl)-2-(3′-(((3S,5R)-3,5-dimethylpiperazin-1-yl)methyl)biphenyl-3-yloxy)-5-fluoronicotinamide] | 0.0631 nM |
| Cc1cc(CN(Cc2cc(C)n(C)n2)[C@H]2CC[C@@H](NC(=O)c3cc(F)cnc3Oc3cccc(-c4ccc(O)cc4CN4CCOCC4)c3)CC2)nn1C [Example 4, N-((1s,4s)-4-(bis((1,5-dimethyl-1H-pyrazol-3-yl)methyl)amino)cyclohexyl)-5-fluoro-2-(4′-hydroxy-2′-(morpholinomethyl)biphenyl-3-yloxy)nicotinamide trifluoroacetate] | 63.1 nM |
| COc1c(CN2C[C@@H](C)N[C@@H](C)C2)cccc1-c1cccc(Oc2ncc(F)cc2C(=O)N[C@H]2CC[C@@H](NC(=O)c3cc(C)n(C)n3)CC2)c1 [Example 106, N-((1s,4s)-4-(1,5-dimethyl-1H-pyrazole-3-carboxamido)cyclohexyl)-2-(3′-(((3S,5R)-3,5-dimethylpiperazin-1-yl)methyl)-2′-methoxybiphenyl-3-yloxy)-5-fluoronicotinamide] | 0.251 nM |
| Cc1cc(C(=O)N[C@H]2CC[C@@H](NC(=O)c3cc(F)cnc3Oc3cccc(-c4ccc(O)cc4CN4CCSCC4)c3)CC2)nn1C [Example 22, N-((1s,4s)-4-(1,5-dimethyl-1H-pyrazole-3-carboxamido)cyclohexyl)-5-fluoro-2-(4′-hydroxy-2′-(thiomorpholinomethyl)biphenyl-3-yloxy)nicotinamide] | 0.0398 nM |

Second part, the compound after the results:

| IC50 | Compound |
| --- | --- |
| 0.0631 nM | O=C(N[C@H]1CC[C@@H](NC(=O)c2cc(F)cnc2Oc2cccc(-c3ccc(CCCN4CCNCC4)cc3)c2)CC1)c1cn2cc(F)ccc2n1 [Example 121, 6-fluoro-N-((1s,4s)-4-(5-fluoro-2-(4′-(3-(piperazin-1-yl)propyl)biphenyl-3-yloxy)nicotinamido)cyclohexyl)imidazo[1,2-a]pyridine-2-carboxamide] |
| 0.0316 nM | Cc1cc(C(=O)N[C@H]2CC[C@@H](NC(=O)c3cc(F)cnc3Oc3cccc(-c4ccc(CCCN5CCNCC5)cc4)c3)CC2)nn1C [Example 130, N-((1s,4s)-4-(1,5-dimethyl-1H-pyrazole-3-carboxamido)cyclohexyl)-5-fluoro-2-(4′-(3-(piperazin-1-yl)propyl)biphenyl-3-yloxy)nicotinamide] |
| 0.158 nM | O=C(N[C@H]1CC[C@@H](NC(=O)c2cc(F)cnc2Oc2cccc(-c3ccc(CN4CCNCC4)cc3)c2)CC1)c1cc2n(n1)CCCC2 [Example 114, N-((1s,4s)-4-(5-fluoro-2-(4′-(piperazin-1-ylmethyl)biphenyl-3-yloxy)nicotinamido)cyclohexyl)-4,5,6,7-tetrahydropyrazolo[1,5-a]pyridine-2-carboxamide] |
| 0.0794 nM | Cc1cc(C(=O)N[C@H]2CC[C@@H](NC(=O)c3cc(F)cnc3Oc3cccc(-c4cccc(CCCN5CCN[C@@H](C)C5)c4)c3)CC2)nn1C [Example 139, N-((1s,4s)-4-(1,5-dimethyl-1H-pyrazole-3-carboxamido)cyclohexyl)-5-fluoro-2-(3′-(3-((S)-3-methylpiperazin-1-yl)propyl)biphenyl-3-yloxy)nicotinamide] |
| 0.0398 nM | Cc1csc(C(=O)N[C@H]2CC[C@@H](NC(=O)c3cc(F)cnc3Oc3cccc(-c4ccc(CCN5CCNCC5)cc4)c3)CC2)n1 [Example 184, N-((1s,4s)-4-(5-Fluoro-2-(4′-(2-(piperazin-1-yl)ethyl)biphenyl-3-yloxy)nicotinamido)cyclohexyl)-4-methylthiazole-2-carboxamide] |
| 0.158 nM | Cc1cccc2nc(C(=O)N[C@H]3CC[C@@H](NC(=O)c4cc(F)cnc4Oc4cccc(-c5cccc(CN6CCNCC6)c5)c4)CC3)cn12 [Example 100, N-((1s,4s)-4-(5-fluoro-2-(3′-(piperazin-1-ylmethyl)biphenyl-3-yloxy)nicotinamido)cyclohexyl)-5-methylimidazo[1,2-a]pyridine-2-carboxamide] |
| 0.0398 nM | O=C(N[C@H]1CC[C@@H](NC(=O)c2cc(F)cnc2Oc2cccc(-c3ccc(CCCN4CCNCC4)cc3)c2)CC1)c1cc2ccccn2n1 [Example 132, N-((1s,4s)-4-(5-fluoro-2-(4′-(3-(piperazin-1-yl)propyl)biphenyl-3-yloxy)nicotinamido)cyclohexyl)pyrazolo[1,5-a]pyridine-2-carboxamide] |
| 0.0316 nM | Cc1cccc(C(=O)N[C@H]2CC[C@@H](NC(=O)c3cc(F)cnc3Oc3cccc(-c4ccc(CCCN5CCNCC5)cc4)c3)CC2)n1 [Example 153, N-((1s,4s)-4-(5-fluoro-2-(4′-(3-(piperazin-1-yl)propyl)biphenyl-3-yloxy)nicotinamido)cyclohexyl)-6-methylpicolinamide] |
| 0.126 nM | Cc1cccc2nc(C(=O)N[C@H]3CC[C@@H](NC(=O)c4cc(F)cnc4Oc4cccc(-c5ccc(CN6CCCN(C)CC6)cc5)c4)CC3)cn12 [Example 64, N-((1s,4s)-4-(5-fluoro-2-(4′-((4-methyl-1,4-diazepan-1-yl)methyl)biphenyl-3-yloxy)nicotinamido)cyclohexyl)-5-methylimidazo[1,2-a]pyridine-2-carboxamide] |
